Experimental data reported in patent publication US4976950A, “Bone marrow suppressing agents” (The Dow Chemical Company, priority 1989, dated 1990).
Values joined by “and” are separate entries in the source; they are usually repeats but may differ in a detail not shown here. Equal values may be shown once.

What was measured:
white blood cell = test: White blood cell count after injection of radionuclide complex (Unopette Test 5856); format: in vivo, Sprague Dawley rats
Experimental: Six Sprague Dawley rats were allowed to acclimate for a period of 6 days then a sample of blood was taken daily from the tail vein and the white blood cell count determined by a standard manual method (Unopette Test 5856 from Becton-Dickinson and Company). On the fourth day, rats numbered 2, 4 and 6 were injected with 0.9 mCi (33.3 MBq) of the above complex. The rat weight at this time ranged from 160-180 g. On days 7, 8, and 9 the white blood cell count was again determined for each rat. Table VI gives the white blood cell count of the injected (2, 4 and 6) rats compared to the control rats (1, 3, and 5). […]

[1] = Biodistribution: % of injected dose in tissue 2 hours after tail vein injection (NaI scintillation counting); format: in vivo, Sprague Dawley rats; conditions: rat i.v.
Experimental: (§1) The rats weighed between 150 and 200 g at the time of injection. After 2 hours the rats were killed by cervical dislocation and dissected. The amount of radioactivity in each tissue was determined by counting in a NaI scintillation counter coupled to a multichannel analyzer. The counts were compared to the counts in 100 μL standards in order to determine the percentage of the dose in each tissue or organ.
as §1, with “to determined” for “to determine”, “organ. The numbers represent the average of 5 rats per data point.” for “organ.”
as §1, with “Sprague Dawley rats were allowed to acclimate for five days then injected with 100 μL of the Sm solution described above via a tail vein. The rats” for “The rats”, “or organ. The numbers represent the average of 3 rats per data point.” for “or organ.”
as §1, with “Sprague Dawley rats were allowed to acclimate for five days then injected with 100 μL of the Ho solution described above via a tail vein. The rats” for “The rats”, “each tissue wa determined by” for “each tissue was determined by”, “or organ. The numbers represent the average of 3 rats per data point.” for “or organ.”
Sprague Dawley rats were allowed to acclimate for five days then injected with 100 μL of the solutions described above via a tail vein. The rats weighed between 150 and 200 g at the time of injection. After 2 hours the rats were killed by cervical dislocation. Tissues were taken, weighed and the amount of radioactivity determined by counting in a NaI scintillation counter coupled to a multichannel analyzer. The counts in each tissue were compared to the counts in 100 μL standards in order to determine the percentage of the dose in each tissue or organ.
A Sprague Dawley rat was allowed to acclimate for five days then injected with 175 μL of the solution described above via a tail vein. The rat weighed 155 g at the time of injection. After 2 hours the rat was killed by cervical dislocation and dissected. The amount of radioactivity in each tissue was determined by counting in a NaI scintillation counter coupled to a multichannel analyzer. The counts in each tissue were compared to the counts in […] standards in order to determine the percentage of the dose in each tissue or organ.

[2] = 0.9 mCi (33.3 MBq) injected Day 4, individual rats 2, 4, 6 (Day 4 counts 28950, 21300, 17600)

O=P([O-])(O)CN1CCN(CP(=O)(O)O)CCN(CP(=O)([O-])O)CCN(CP(=O)(O)O)CC1.[166Ho] [Ho-DOTMP]
Blood count of treated animals compared to untreated animals (white blood cell; 0.9 mCi (33.3 MBq) i.v., rats, days 7, 8 and 9, injected on day 4): significant drop in the blood count | White blood cell count, Day 7 (white blood cell; [2]): 5850 and 7400 and 5400 | White blood cell count, Day 8 (white blood cell; [2]): 7950 and 7500 and 4750 | White blood cell count, Day 9 (white blood cell; [2]): 7900 and 7550 and 5350 | % Injection dose in blood ([1]; Table IV, Blood, 0.6 mM Ho, ligand to Ho ratio approximately 1.5, average of 3 rats): 0.07% | % Injection dose in kidney ([1]; Table IV, Kidney, 0.6 mM Ho, ligand to Ho ratio approximately 1.5, average of 3 rats): 0.4% | % Injection dose in liver ([1]; Table IV, Liver, 0.6 mM Ho, ligand to Ho ratio approximately 1.5, average of 3 rats): 0.07% | % Injected dose in blood ([1]; Table V, Blood, ligand of Example 2, cation exchange purified, average of 3 rats): 0.17% | % Injected dose in bone ([1]; Table V, Bone, ligand of Example 2, cation exchange purified, average of 3 rats): 64% | % Injected dose in liver ([1]; Table V, Liver, ligand of Example 2, cation exchange purified, average of 3 rats): 0.19%
